In BigSolDB 2.1:

CCOC(=O)c1ccc(O)cc1
solubility (mole fraction)
Conditions	278.15 K	283.15 K	288.15 K	293.15 K	298.15 K	303.15 K	308.15 K	313.15 K	318.15 K
in acetonitrile	0.0703	0.0822	0.0995	0.121	0.148	0.178	0.214	0.252	0.293
in water	2.62e-05	3.64e-05	5.25e-05	7.52e-05	9.7e-05	0.000119	0.000145	0.000169	0.000192
